Experimental data published in ChEMBL document CHEMBL3525933 (Drug Metab Dispos, 2012).

Key:
[1] = test system: Plasma; test: Drug metabolism in Wistar rat plasma assessed as retention time by HPLC-DAD analysis; assay type: ADME, cell-free
[2] = test system: Plasma; test: Drug recovery in Wistar rat plasma at 100 ng/ml by HPLC-DAD analysis; assay type: ADME, cell-free
[3] = test system: Plasma; test: Drug recovery in Wistar rat plasma at 500 ng/ml by HPLC-DAD analysis; assay type: ADME, cell-free
[4] = test system: Plasma; test: Drug recovery in Wistar rat plasma at 2000 ng/ml by HPLC-DAD analysis; assay type: ADME, cell-free
[5] = Cmax in conventional Wistar rat at 400 mg/kg, po administered as single dose by HPLC-DAD analysis; assay type: ADME, organism-based; set-up: dose 400 mg/kg, route oral; details: in vivo
[6] = Tmax in conventional Wistar rat at 400 mg/kg, po administered as single dose by HPLC-DAD analysis; assay type: ADME, organism-based; set-up: dose 400 mg/kg, route oral; details: in vivo
[7] = Elimination half life in conventional Wistar rat at 400 mg/kg, po administered as single dose by HPLC-DAD analysis; assay type: ADME, organism-based; set-up: dose 400 mg/kg, route oral; details: in vivo, read-out: beta t1/2 (converted)
[8] = AUC(0 to t) in conventional Wistar rat at 400 mg/kg, po administered as single dose by HPLC-DAD analysis; assay type: ADME, organism-based; set-up: dose 400 mg/kg, route oral; details: plasma
[9] = AUC(0 to infinity) in conventional Wistar rat at 400 mg/kg, po administered as single dose by HPLC-DAD analysis; assay type: ADME, organism-based; set-up: time infinity, dose 400 mg/kg, route oral; details: plasma
[10] = MRT(0 to infinity) in conventional Wistar rat at 400 mg/kg, po administered as single dose by HPLC-DAD analysis; assay type: ADME, organism-based; set-up: dose 400 mg/kg, route oral; details: in vivo
[11] = Apparent oral clearance in conventional Wistar rat at 400 mg/kg, po administered as single dose by HPLC-DAD analysis; assay type: ADME, organism-based; set-up: dose 400 mg/kg, route oral; details: in vivo
[12] = Cmax in pseudo-germ free Wistar rat at 400 mg/kg, po administered as single dose by HPLC-DAD analysis; assay type: ADME, organism-based; set-up: dose 400 mg/kg, route oral; details: in vivo
[13] = Tmax in pseudo-germ free Wistar rat at 400 mg/kg, po administered as single dose by HPLC-DAD analysis; assay type: ADME, organism-based; set-up: dose 400 mg/kg, route oral; details: in vivo
[14] = Elimination half life in pseudo-germ free Wistar rat at 400 mg/kg, po administered as single dose by HPLC-DAD analysis; assay type: ADME, organism-based; set-up: dose 400 mg/kg, route oral; details: in vivo, read-out: beta t1/2 (converted)
[15] = AUC(0 to t) in pseudo-germ free Wistar rat at 400 mg/kg, po administered as single dose by HPLC-DAD analysis; assay type: ADME, organism-based; set-up: dose 400 mg/kg, route oral; details: plasma
[16] = AUC(0 to infinity) in pseudo-germ free Wistar rat at 400 mg/kg, po administered as single dose by HPLC-DAD analysis; assay type: ADME, organism-based; set-up: time infinity, dose 400 mg/kg, route oral; details: plasma
[17] = MRT(0 to t) in pseudo-germ free Wistar rat at 400 mg/kg, po administered as single dose by HPLC-DAD analysis; assay type: ADME, organism-based; set-up: dose 400 mg/kg, route oral; details: in vivo
[18] = MRT(0 to infinity) in pseudo-germ free Wistar rat at 400 mg/kg, po administered as single dose by HPLC-DAD analysis; assay type: ADME, organism-based; set-up: dose 400 mg/kg, route oral; details: in vivo
[19] = Apparent oral clearance in pseudo-germ free Wistar rat at 400 mg/kg, po administered as single dose by HPLC-DAD analysis; assay type: ADME, organism-based; set-up: dose 400 mg/kg, route oral; details: in vivo
[20] = Cmax in streptozotocin-induced diabetic Wistar rat at 400 mg/kg, po administered as single dose by HPLC-DAD analysis; assay type: ADME, organism-based; set-up: dose 400 mg/kg, route oral; details: in vivo
[21] = Tmax in streptozotocin-induced diabetic Wistar rat at 400 mg/kg, po administered as single dose by HPLC-DAD analysis; assay type: ADME, organism-based; set-up: dose 400 mg/kg, route oral; details: in vivo
[22] = Elimination half life in streptozotocin-induced diabetic Wistar rat at 400 mg/kg, po administered as single dose by HPLC-DAD analysis; assay type: ADME, organism-based; set-up: dose 400 mg/kg, route oral; details: in vivo, read-out: beta t1/2 (converted)
[23] = AUC(0 to t) in streptozotocin-induced diabetic Wistar rat at 400 mg/kg, po administered as single dose by HPLC-DAD analysis; assay type: ADME, organism-based; set-up: dose 400 mg/kg, route oral; details: plasma
[24] = AUC(0 to infinity) in streptozotocin-induced diabetic Wistar rat at 400 mg/kg, po administered as single dose by HPLC-DAD analysis; assay type: ADME, organism-based; set-up: time infinity, dose 400 mg/kg, route oral; details: plasma
[25] = MRT(0 to t) in streptozotocin-induced diabetic Wistar rat at 400 mg/kg, po administered as single dose by HPLC-DAD analysis; assay type: ADME, organism-based; set-up: dose 400 mg/kg, route oral; details: in vivo
[26] = MRT(0 to infinity) in streptozotocin-induced diabetic Wistar rat at 400 mg/kg, po administered as single dose by HPLC-DAD analysis; assay type: ADME, organism-based; set-up: dose 400 mg/kg, route oral; details: in vivo
[27] = Apparent oral clearance in streptozotocin-induced diabetic Wistar rat at 400 mg/kg, po administered as single dose by HPLC-DAD analysis; assay type: ADME, organism-based; set-up: dose 400 mg/kg, route oral; details: in vivo
[28] = test system: Plasma; test: Drug uptake in conventional Wistar rat plasma at 400 mg/kg, po administered as single dose by HPLC-DAD analysis; assay type: ADME, organism-based; set-up: dose 400 mg/kg, route oral; details: in vivo
[29] = test system: Plasma; test: Drug metabolism in conventional Wistar rat plasma assessed as norathyriol metabolite formation at 400 mg/kg, po administered as single dose by HPLC-DAD analysis; assay type: ADME, organism-based; set-up: dose 400 mg/kg, route oral; details: in vivo

Q: Which results are given for `O=c1c2cc(O)c(O)cc2oc2cc(O)c([C@@H]3O[C@H](CO)[C@@H](O)[C@H](O)[C@H]3O)c(O)c12` [MANGIFERIN]?
A: Retention_time [1]: 5.5 min; Drug recovery [2]: 78.4%; Drug recovery [3]: 75.5%; Drug recovery [4]: 75.8%; Cmax [5]: 715 ng/mL; Tmax [6]: 0.73 h; half-life [7]: 2.47 h; AUC(0-t) [8]: 3800 ng·h/mL; AUC(0-inf) [9]: 3820 ng·h/mL; MRT inf [10]: 7.77 h; CL/F [11]: 2030 mL/min/kg; Cmax [12]: 452 ng/mL; Tmax [13]: 2.89 h; half-life [14]: 2.59 h; AUC(0-t) [15]: 4320 ng·h/mL; AUC(0-inf) [16]: 4340 ng·h/mL; MRT last [17]: 7.42 h; MRT inf [18]: 7.52 h; CL/F [19]: 1690 mL/min/kg; Cmax [20]: 2000 ng/mL; Tmax [21]: 2.25 h; half-life [22]: 2.6 h; AUC(0-t) [23]: 8930 ng·h/mL; AUC(0-inf) [24]: 8950 ng·h/mL; MRT last [25]: 5.4 h; MRT inf [26]: 5.45 h; CL/F [27]: 772 mL/min/kg; Drug uptake [28]: Active; Drug metabolism [29]: metabolite_not_detected
